Changes are numbered by the printed parent chain.
Key:
[1] = biological target: T1, β-glucocerebrosidase Wild Type (WT) (Homo sapiens, UniProt P04062); assay: β-glucocerebrosidase activity enhancement, Wild Type (WT); type: cell-based; settings: increase in enzyme activity vs non-treated cells; for Activity WT: commercially available compounds
T1 construct: endogenous in cells
T1 sequence (P04062 40-536): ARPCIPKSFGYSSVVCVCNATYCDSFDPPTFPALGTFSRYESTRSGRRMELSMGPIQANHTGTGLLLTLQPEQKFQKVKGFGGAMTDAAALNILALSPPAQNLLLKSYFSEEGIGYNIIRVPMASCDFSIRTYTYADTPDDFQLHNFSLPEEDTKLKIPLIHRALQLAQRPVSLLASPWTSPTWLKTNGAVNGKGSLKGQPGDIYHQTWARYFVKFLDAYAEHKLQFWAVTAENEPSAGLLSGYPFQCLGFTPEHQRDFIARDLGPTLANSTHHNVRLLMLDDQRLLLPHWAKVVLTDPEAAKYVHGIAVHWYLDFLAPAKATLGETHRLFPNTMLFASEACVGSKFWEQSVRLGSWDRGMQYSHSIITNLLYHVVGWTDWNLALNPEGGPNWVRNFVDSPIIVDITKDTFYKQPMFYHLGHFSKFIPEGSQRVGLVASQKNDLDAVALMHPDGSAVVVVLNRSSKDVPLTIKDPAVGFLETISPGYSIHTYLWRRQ
Protocol: Fibroblasts were seeded at 5×10^3 cells per well in 96-well cell culture plates (Corning, N.Y., USA) in Dulbecco's Modified Eagle's Media (DMEM) supplemented with 10% of fetal bovine serum (FBS), 1% penicillin/streptomycin (P/S) (Thermo Fisher Scientific, Waltham, Mass., USA) and grown at 37° C., 5% CO2 overnight for cell attachment. Subsequently, cells were incubated in the absence or presence of the compounds at the desired concentration for 4 days. After incubation, cells were washed twice with phosphate-buffered saline (PBS) and enzyme activity assay was performed.
β-glucocerebrosidase activity in intact cultured cells was measured by using 4-methylumbelliferyl-β-D-glucopyranoside substrate (Apollo Scientific, UK). Briefly, cells were incubated with 4-MU-β-D-glucopyranoside in 0.1 M acetate buffer pH=4 at 37° C. for 1 hour. […] The liberated 4-MU was measured on a GloMax Discover plate reader (Promega, Madison, Wis., USA) with and excitation at 340 nm and emission at 460 nm. Enzyme activities were expressed in treated cells as X-fold increase in comparison with non-treated cells (X=1 represents no enhancement).
The following compounds listed in Table 2 were purchased (from Enamine, Princeton, Asinex, Vistas-M, and OSSK_541352) and tested in the assay as described above.

[2] = biological target: T2, β-glucocerebrosidase, p.L444P mutation (GM08760A fibroblasts) (Homo sapiens, UniProt P04062, L483P); assay: Enhancement of β-glucocerebrosidase activity measured in Gaucher disease fibroblasts (L444P); type: cell-based; settings: increase in enzyme activity vs non-treated cells, GBA fibroblasts bearing L444P
T2 construct: host or cells: human Gaucher patient fibroblasts GM08760A, homozygous L444P
T2 sequence (P04062 40-536 L483P): T1 sequence (P04062 40-536) with L444P
Summary of the method: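 GM08760A fibroblasts (homozygous p.L444P), 5×10^3 cells/well, treated with compound for 4 days at 37° C. Intact cells then incubated with 4-MU-β-D-glucopyranoside in 0.1 M acetate buffer pH=4 for 1 hour at 37° C.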

[3] = concentrations between 6 and 50 μM, 4 days incubation
[4] = commercially available compounds, 6-50 μM, 4 days

SMILES	Activity Wild Type (WT) [1]	Activity L444P [2, 3]	Activity WT [1]	Activity L444P [2, 4]
CN(Cc1ccccc1)Cc1nc(N)nc(Nc2ccc(Br)cc2)n1 [Example 5, 6-((Benzyl(methyl)amino)methyl)-N^2-(4-bromophenyl)-1,3,5-triazine-2,4-diamine]	C (Increase in comparison with non-treated of 1.2-1.7 fold is shown as C)	C (Increase in comparison with non-treated of 1.2-1.7 fold is shown as C)		
COc1cccc(Nc2cc(CN(C)Cc3cccc(C#N)c3)nc(N)n2)c1 [Example 37, 3-((((2-Amino-6-(3-methoxyphenylamino)pyrimidin-4-yl)methyl)(methyl)amino)methyl) benzonitrile]	B (Increase in comparison with non-treated of >1.7-2.0 fold is shown as B)	C (Increase in comparison with non-treated of 1.2-1.7 fold is shown as C)		
CN(Cc1ccccc1)Cc1cc(Nc2cccc(Cl)c2)nc(N)n1 [Example 20]	B (Increase in comparison with non-treated of >1.7-2.0 fold is shown as B)	B (Increase in comparison with non-treated of >1.7-2.0 fold is shown as B)		
CCN(Cc1ccccc1)Cc1cc(Nc2cccc(OC)c2)nc(N)n1 [Example 48, 6-((Benzyl(ethyl)amino)methyl)-N^4-(3-methoxyphenyl)pyrimidine-2,4-diamine]	B (Increase in comparison with non-treated of >1.7-2.0 fold is shown as B)	C (Increase in comparison with non-treated of 1.2-1.7 fold is shown as C)		
COc1ccc(Nc2nc(N)nc(CN(C)Cc3ccccc3)n2)cc1 [Example 6, 6-((Benzyl(methyl)amino)methyl)-N^2-(4-methoxyphenyl)-1,35-triazine-2,4-diamine]	B (Increase in comparison with non-treated of >1.7-2.0 fold is shown as B)	B (Increase in comparison with non-treated of >1.7-2.0 fold is shown as B)		
Cc1ccc(Nc2cc(CN(C)c3ccccc3)nc(N)n2)cc1 [Example 13, 6-((Methyl(phenyl)amino)methyl)-N^4-(p-tolyl)pyrimidine-2,4-diamine]	B (Increase in comparison with non-treated of >1.7-2.0 fold is shown as B)	B (Increase in comparison with non-treated of >1.7-2.0 fold is shown as B)		
COc1cccc(Nc2cc(CN3CCCC3c3ccccc3)nc(N)n2)c1 (centres unmarked) [Example 50]	C (Increase in comparison with non-treated of 1.2-1.7 fold is shown as C)	C (Increase in comparison with non-treated of 1.2-1.7 fold is shown as C)		
CN(Cc1ccccc1)Cc1nc(N)nc(Nc2cccc(C#N)c2)n1 [Example 12, 3-(4-Amino-6-((benzyl(methyl)amino)methyl)-1,3,5-triazin-2-ylamino)benzonitrile]	B (Increase in comparison with non-treated of >1.7-2.0 fold is shown as B)	C (Increase in comparison with non-treated of 1.2-1.7 fold is shown as C)		
COc1ccc(Nc2nc(N)cc(CN(C)Cc3ccccc3)n2)cc1 [Example 70]	B (Increase in comparison with non-treated of >1.7-2.0 fold is shown as B)	A (Increase in comparison with non-treated of >2.0 fold is shown as A)		
COc1cccc(Nc2nc(N)cc(CN(C)Cc3ccccc3)n2)c1 [Example 69, 6-((Benzyl(methyl)amino)methyl)-N^2-(3-methoxyphenyl)pyrimidine-2,4-diamine]	C (Increase in comparison with non-treated of 1.2-1.7 fold is shown as C)	A (Increase in comparison with non-treated of >2.0 fold is shown as A)		
Cc1ccc(Nc2cc(CN3CCCc4ccccc43)nc(N)n2)cc1 [Example 14, 6-((3,4-Dihydroquinolin-1(2H)-yl)methyl)-N^4-(p-tolyl)pyrimidine-2,4-diamine]	B (Increase in comparison with non-treated of >1.7-2.0 fold is shown as B)	C (Increase in comparison with non-treated of 1.2-1.7 fold is shown as C)		
CCN(Cc1ccccc1)C(C)c1nc(N)nc(Nc2ccccc2)n1 (centres unmarked) [6-(1-(benzyl(ethyl)amino)ethyl)-N2-phenyl-1,3,5-triazine-2,4-diamine]			B (Increase in comparison with non-treated of >1.7-2.0 fold is shown as B)	B (Increase in comparison with non-treated of >1.7-2.0 fold is shown as B)
COc1ccccc1Nc1nc(N)nc(CN(C)Cc2ccccc2)n1 [Example 10, 6-((Benzyl (methyl)amino)methyl)-N^2-(2-methoxyphenyl)-1,3,5-triazine-2,4-diamine]	B (Increase in comparison with non-treated of >1.7-2.0 fold is shown as B)	C (Increase in comparison with non-treated of 1.2-1.7 fold is shown as C)		
Cc1ccccc1Nc1cc(CN(C)Cc2ccccc2)nc(N)n1 [Example 28, 6-((Benzyl(methyl)amino)methyl)-N^4-o-tolylpyrimidine-2,4-diamine]	B (Increase in comparison with non-treated of >1.7-2.0 fold is shown as B)	B (Increase in comparison with non-treated of >1.7-2.0 fold is shown as B)		
Cc1ccc(Nc2nc(N)nc(CN3CCc4ccccc4C3)n2)cc1 [6-((3,4-dihydroisoquinolin-2(1H)-yl)methyl)-N2-(p-tolyl)-1,3,5-triazine-2,4-diamine]			B (Increase in comparison with non-treated of >1.7-2.0 fold is shown as B)	B (Increase in comparison with non-treated of >1.7-2.0 fold is shown as B)
COc1cccc(Nc2cc(N)nc(CN(C)Cc3ccccc3)n2)c1 [Example 65, 2-((Benzyl(methyl)amino)methyl)-N^4-(3-methoxyphenyl)pyrimidine-4,6-diamine]	A (Increase in comparison with non-treated of >2.0 fold is shown as A)	B (Increase in comparison with non-treated of >1.7-2.0 fold is shown as B)		
COc1ccc(OC)c(Nc2cc(CN(C)Cc3ccccc3)nc(N)n2)c1 [Example 41, 6-((Benzyl(methyl)amino)methyl)-N^4-(2,5-dimethoxyphenyl)pyrimidine-2,4-diamine]	C (Increase in comparison with non-treated of 1.2-1.7 fold is shown as C)	B (Increase in comparison with non-treated of >1.7-2.0 fold is shown as B)		
CN(Cc1ccccc1)Cc1nc(N)nc(Nc2cccnc2)n1 [Example 26, 6-((Benzyl(methyl)amino)methyl)-N^2-(pyridin-3-yl)-1,3,5-triazine-2,4-diamine]	B (Increase in comparison with non-treated of >1.7-2.0 fold is shown as B)	C (Increase in comparison with non-treated of 1.2-1.7 fold is shown as C)		
Cc1cccc(Nc2cc(N)nc(CN(C)Cc3ccccc3)n2)c1 [Example 64, 2-((Benzyl(methyl)amino)methyl)-N^4-m-tolylpyrimidine-4,6-diamine]	B (Increase in comparison with non-treated of >1.7-2.0 fold is shown as B)	B (Increase in comparison with non-treated of >1.7-2.0 fold is shown as B)		

From patent publication US11174242B2, “Heteroaryl compounds and their use” (Minoryx Therapeutics S.L., priority 2016, dated 2021)
